Patent US8324264B1, “Inhibitors of bacterial biofilms and related methods” (Sequoia Sciences, Inc., priority 2011, dated 2012)
Converted amounts (≈) assume the structure as drawn.

Experiments:
P. aeruginosa biofilms = experiment: Biofilm growth assay (spreading biofilm on semi-solid agar), P. aeruginosa; format: cell-based; settings: biofilm growth assay, overnight 37° C., vs negative controls, Tables 1-5; for IC85: Pseudomonas aeruginosa, read-out: P. aeruginosa: concentration that reduces the area of the spreading biofilm by greater than or equal to 85%
Description: (§1) “Biofilm Growth Assay” refers to an assay performed on semi-solid agar surface where the bacteria collectively move out from an inoculation point. To those skilled in the art, the act of bacteria collectively moving out from an inoculation point on a semi-solid surface may be referred to as swarming or a spreading biofilm. (Anderson, et al Microbiology, 2003, 149, 37-46; Daniels, et al. FEMS Microbiology Reviews, 2004, 28, 261-289). The procedure to perform this assay is described in detail in the Examples. This type of surface motility by bacteria has been reported in the literature by those skilled in the art. […] These references are incorporated herein by reference in their entirety.
(§2) The biofilm growth assay was carried out to measure swarming or biofilm spreading on semi-solid agar media in round plates (for example, 100×15 mm), also referred to as Petri dishes. For E. coli, the plates contained LB medium with 0.6% agar and 0.5% glucose. P. aeruginosa plates were made with M8 agar supplemented with 0.2% glucose, 100 μM CaCl2, 1 mM MgSO4, and 0.5% Casamino acids. The agar plates of this assay consisted of 0.4% to 0.7% agar (Bacto or Noble agar), although other media may also be used as described in the literature and known to those skilled in the art. Test compounds at the desired concentration were added to the cooled, autoclaved media. Portions of the media were then poured into the plates (20 mL/plate), and the plates allowed to dry at room temperature for approximately 3 to 4 hours. Alternatively, however, plates may be dried in a laminar flow hood for approximately fifteen to twenty minutes. Overnight cultures were grown in a 37° C. shaker in LB (E. coli) or TSB (P. aeruginosa). Plates were inoculated by placing 5 μL of the appropriate overnight culture in the centers of the plates. The plates then were incubated overnight at 37° C. The area of the zone of spreading bacteria was then measured and replicates are averaged. Percent inhibition was calculated as 100×(area without compound−area with compound)/(area without compound). An active compound was considered that which reduces the area of the spreading biofilm compared to negative controls by greater than or equal to 85%. The values shown in Table 1 are the concentrations of compounds (μg/ml) tested in the biofilm growth assay that reduce the area of the spreading biofilm compared to negative controls by greater than or equal to 85% unless noted differently in Table 1. A > (“greater than” symbol) as used in Table 1 is well understood to those skilled in the art as an indication that the listed concentration was not effective at this concentration.
(§3) All of the compounds shown in Tables 2, 3, 4, and 5, below, were prepared semi-synthetically from oleanolic acid, except for Compounds 2 and 3. Compound 2 was prepared from ursolic acid. Compound 3 was prepared from hederagenin, but could also be prepared from an oleanolic acid analog with a hydroxyl at C23 or C24. These compounds were tested in the spreading biofilm assay according to the methods detailed in Example I, above. The values shown in Tables 2, 3, 4, and 5 are the concentrations of compounds tested in the biofilm growth assay that reduce the area of the spreading biofilm compared to negative controls by greater than or equal to 85%.

E. coli biofilms = experiment: Biofilm growth assay (spreading biofilm on semi-solid agar), E. coli; format: cell-based; settings: biofilm growth assay, overnight 37° C., vs negative controls, Tables 1-5; for IC85: Escherichia coli, read-out: E. coli: concentration that reduces the area of the spreading biofilm by greater than or equal to 85%
Description: as §1, §2, §3

For `CC1(C)CC[C@]2(C(=O)O)CC[C@]3(C)C(=C(c4coc(CN5CCOCC5)c4)CC4[C@@]5(C)Cc6c(n[nH]c6N)C(C)(C)[C@@H]5CC[C@]43C)[C@@H]2C1` (stereo partly drawn) [Example 40, (4aS,6aS,6bR,8aR,13aR,15bS)-12-Amino-2,2,6a,6b,9,9,13a-heptamethyl-15-(5-(morpholinomethyl)furan-3-yl)-2,3,4,4a,5,6,6a,6b,7,8,8a,9,11,13,13a,13b,14,15b-octadecahydro-1H-chryseno[1,2-f]indazole-4-a-carboxylic acid], the “P. aeruginosa: concentration that reduces the area of the spreading biofilm by greater than or equal to 85%” value (P. aeruginosa biofilms) was 0.5 µg/mL and the “E. coli: concentration that reduces the area of the spreading biofilm by greater than or equal to 85%” value (E. coli biofilms) was 2 µg/mL.

`CC1(C)CC[C@]2(C(=O)O)CC[C@]3(C)C(=C(c4cccc5cnccc45)CC4[C@@]5(C)Cc6c(n[nH]c6N)C(C)(C)C5CC[C@]43C)C2C1` (stereo partly drawn) [Example 46, (4aS,6aS,6bR,13aR)-12-Amino-15-(isoquinolin-5-yl)-2,2,6a,6b,9,9,13a-heptamethyl-2,3,4,4a,5,6,6a,6b,7,8,8a,9,11,13,13a,13b,14,15b-octadecahydro-1H-chryseno[1,2-f]indazole-4-a-carboxylic acid] was tested, and the “P. aeruginosa: concentration that reduces the area of the spreading biofilm by greater than or equal to 85%” value (P. aeruginosa biofilms) was 0.5 µg/mL and the “E. coli: concentration that reduces the area of the spreading biofilm by greater than or equal to 85%” value (E. coli biofilms) was 1 µg/mL.

With `C=C(C)[C@@H]1CC[C@]2(CO)CC[C@]3(C)[C@H](CC[C@@H]4[C@@]5(C)CC[C@H](O)C(C)(C)[C@@H]5CC[C@]43C)[C@@H]12` [Betulin, reference compound] the IC85 (P. aeruginosa biofilms) was 16 µg/mL (≈ 36.1 µM) and the IC85 (E. coli biofilms) was > 16 µg/mL.

With `CN(C)c1[nH]nc2c1C[C@@]1(C)C(CC[C@]3(C)C1CC=C1C4CC(C)(C)CC[C@]4(C(=O)O)CC[C@]13C)C2(C)C` (some centres unmarked) [J] the IC85 (P. aeruginosa biofilms) was > 16 µg/mL and the IC85 (E. coli biofilms) was > 16 µg/mL.

With `CC1(C)CC[C@]2(CN)CC[C@]3(C)C(=CCC4[C@@]5(C)Cc6c(n[nH]c6N)C(C)(C)C5CC[C@]43C)C2C1` (stereo partly drawn) [Compound 63, (4aS,6aS,6bR,13aR)-4-a-(Aminomethyl)-2,2,6a,6b,9,9,13a-heptamethyl-2,3,4,4a,5,6,6a,6b,7,8,8a,9,11,13,13a,13b,14,15b-octadecahydro-1H-chryseno[1,2-f]indazol-12-amine] the IC85 (P. aeruginosa biofilms) was 4 µg/mL (≈ 8.35 µM) and the IC85 (E. coli biofilms) was 1 µg/mL (≈ 2.09 µM).

`CC1(C)CC[C@]2(c3n[nH]c(O)c3N3CCOCC3)CC[C@]3(C)C(=CCC4[C@@]5(C)Cc6c(n[nH]c6N)C(C)(C)[C@@H]5CC[C@]43C)[C@@H]2C1` (stereo partly drawn) [Compound 88, 3-((4aS,6aS,6bR,13aR)-12-Amino-2,2,6a,6b,9,9,13a-heptamethyl-2,3,4,4a,5,6,6a,6b,7,8,8a,9,11,13,13a,13b,14,15b-octadecahydro-1H-chryseno[1,2-f]indazol-4-a-yl)-4-morpholino-1H-pyrazol-5-ol] was tested, and the IC85 (P. aeruginosa biofilms) was 0.25 µg/mL (≈ 0.405 µM) and the IC85 (E. coli biofilms) was 0.5 µg/mL (≈ 0.811 µM).

In the case of `CC1(C)CC[C@]2(C(=O)Nc3nnc(S(N)(=O)=O)s3)CC[C@]3(C)C(=CCC4[C@@]5(C)Cc6c(n[nH]c6N)C(C)(C)C5CC[C@]43C)C2C1` (stereo partly drawn) [Compound 80, (4aS,6aS,6bR,13aR)-12-Amino-2,2,6a,6b,9,9,13a-heptamethyl-N-(5-sulfamoyl-1,3,4-thiadiazol-2-yl)-2,3,4,4a,5,6,6a,6b,7,8,8a,9,11,13,13a,13b,14,15b-octadecahydro-1H-chryseno[1,2-f]indazole-4-a-carboxamide], the “P. aeruginosa: concentration that reduces the area of the spreading biofilm by greater than or equal to 85%” value (P. aeruginosa biofilms) is reported as 1 µg/mL and the “E. coli: concentration that reduces the area of the spreading biofilm by greater than or equal to 85%” value (E. coli biofilms) is reported as 1 µg/mL.

For `CC1(C)CC[C@]2(C(=O)O)CC[C@]3(C)C(=CCC4[C@@]5(C)CC6=NCN=C6C(C)(C)C5CC[C@]43C)C2C1` (some centres unmarked) [F], the IC85 (P. aeruginosa biofilms) was 4 µg/mL (≈ 8.36 µM) and the IC85 (E. coli biofilms) was > 8 µg/mL.

Compound `C[C@H]1[C@H](C)CC[C@]2(C(=O)O)CC[C@]3(C)C(=CC[C@@H]4[C@@]5(C)CC[C@H](O)C(C)(C)[C@@H]5CC[C@]43C)[C@H]12` [Ursolic acid, ursolic acid, reference compound] has an IC85 (P. aeruginosa biofilms) of 8 µg/mL (≈ 17.5 µM) and an IC85 (E. coli biofilms) of 8 µg/mL (≈ 17.5 µM).

For `CC1(C)CC[C@]2(C(=O)O)CC[C@]3(C)C(=C(Cl)CC4[C@@]5(C)Cc6c(n[nH]c6N)C(C)(C)C5CC[C@]43C)C2C1` (stereo partly drawn) [Example 24, (4aS,6aS,6bR,13aR)-12-Amino-15-chloro-2,2,6a,6b,9,9,13a-heptamethyl-2,3,4,4a,5,6,6a,6b,7,8,8a,9,11,13,13a,13b,14,15b-octadecahydro-1H-chryseno[1,2-f]indazole-4-a-carboxylic acid], the IC85 (P. aeruginosa biofilms) was 0.5 µg/mL (≈ 0.947 µM) and the IC85 (E. coli biofilms) was 1 µg/mL (≈ 1.89 µM).

`CC1(C)CC[C@]2(C(=O)O)CC[C@]3(C)C(=C(c4cccc(C(N)=O)c4)CC4[C@@]5(C)Cc6c(n[nH]c6N)C(C)(C)C5CC[C@]43C)C2C1` (stereo partly drawn) [Example 19, (4aS,6aS,6bR,13aR)-12-Amino-15-(3-carbamoylphenyl)-2,2,6a,6b,9,9,13a-heptamethyl-2,3,4,4a,5,6,6a,6b,7,8,8a,9,11,13,13a,13b,14,15b-octadecahydro-1H-chryseno[1,2-f]indazole-4-a-carboxylic acid] was tested, and the “P. aeruginosa: concentration that reduces the area of the spreading biofilm by greater than or equal to 85%” value (P. aeruginosa biofilms) was 1 µg/mL and the “E. coli: concentration that reduces the area of the spreading biofilm by greater than or equal to 85%” value (E. coli biofilms) was 1 µg/mL.

Work on `CC1(C)CC[C@]2(C(=O)O)CC[C@]3(C)C(=C(c4ccccc4N)CC4[C@@]5(C)Cc6c(n[nH]c6N)C(C)(C)C5CC[C@]43C)C2C1` (stereo partly drawn) [Example 23, (4aS,6aS,6bR,13aR)-12-Amino-15-(2-aminophenyl)-2,2,6a,6b,9,9,13a-heptamethyl-2,3,4,4a,5,6,6a,6b,7,8,8a,9,11,13,13a,13b,14,15b-octadecahydro-1H-chryseno[1,2-f]indazole-4-a-carboxylic acid] yielded an IC85 (P. aeruginosa biofilms) of 1 µg/mL (≈ 1.71 µM) and an IC85 (E. coli biofilms) of 2 µg/mL (≈ 3.42 µM).

In the case of `CC1(C)CC[C@]2(C(=O)O)CC[C@]3(C)C(=C(c4ccncc4)CC4[C@@]5(C)Cc6c(n[nH]c6N)C(C)(C)[C@@H]5CC[C@]43C)[C@@H]2C1` (stereo partly drawn) [Example 29, (4aS,6aS,6bR,8aR,13aR,15bS)-12-Amino-2,2,6a,6b,9,9,13a-heptamethyl-15-(pyridin-4-yl)-2,3,4,4a,5,6,6a,6b,7,8,8a,9,11,13,13a,13b,14,15b-octadecahydro-1H-chryseno[1,2-f]indazole-4-a-carboxylic acid], the “P. aeruginosa: concentration that reduces the area of the spreading biofilm by greater than or equal to 85%” value (P. aeruginosa biofilms) is reported as 1 µg/mL and the “E. coli: concentration that reduces the area of the spreading biofilm by greater than or equal to 85%” value (E. coli biofilms) is reported as 1 µg/mL.

With `CC1(C)CC[C@]2(C(=O)O)CC[C@]3(C)C(=C(Br)CC4[C@@]5(C)Cc6c(n[nH]c6N)C(C)(C)[C@@H]5CC[C@]43C)[C@@H]2C1` (stereo partly drawn) [Example 25, (4aS,6aS,6bR,8aR,13aR,15bR)-12-Amino-15-bromo-2,2,6a,6b,9,9,13a-heptamethyl-2,3,4,4a,5,6,6a,6b,7,8,8a,9,11,13,13a,13b,14,15b-octadecahydro-1H-chryseno[1,2-f]indazole-4-a-carboxylic acid] the “P. aeruginosa: concentration that reduces the area of the spreading biofilm by greater than or equal to 85%” value (P. aeruginosa biofilms) was 0.5 µg/mL and the “E. coli: concentration that reduces the area of the spreading biofilm by greater than or equal to 85%” value (E. coli biofilms) was >2 µg/mL.

`CC1(C)CC[C@]2(C(=O)NO)CC[C@]3(C)C(=CCC4[C@@]5(C)Cc6c(n[nH]c6N)C(C)(C)[C@@H]5CC[C@]43C)[C@@H]2C1` (stereo partly drawn) [Compound 65, (4aS,6aS,6bR,13aR)-12-Amino-N-hydroxy-2,2,6a,6b,9,9,13a-heptamethyl-2,3,4,4a,5,6,6a,6b,7,8,8a,9,11,13,13a,13b,14,15b-octadecahydro-1H-chryseno[1,2-f]indazole-4-a-carboxamide] was tested, and the IC85 (P. aeruginosa biofilms) was 0.25 µg/mL (≈ 0.491 µM) and the IC85 (E. coli biofilms) was 0.25 µg/mL (≈ 0.491 µM).

For `CC1(C)CC[C@]2(C(=O)O)CC[C@]3(C)C(=C(c4ccc(N5CCCC5)nc4)CC4[C@@]5(C)Cc6c(n[nH]c6N)C(C)(C)C5CC[C@]43C)C2C1` (stereo partly drawn) [Example 45, (4aS,6aS,6bR,13aR)-12-Amino-2,2,6a,6b,9,9,13a-heptamethyl-15-(6-(pyrrolidin-1-yl)pyridin-3-yl)-2,3,4,4a,5,6,6a,6b,7,8,8a,9,11,13,13a,13b,14,15b-octadecahydro-1H-chryseno[1,2-f]indazole-4-a-carboxylic acid], the “P. aeruginosa: concentration that reduces the area of the spreading biofilm by greater than or equal to 85%” value (P. aeruginosa biofilms) was 0.5 µg/mL and the “E. coli: concentration that reduces the area of the spreading biofilm by greater than or equal to 85%” value (E. coli biofilms) was 1 µg/mL.
